# Patent US9981954B2, “2-(pyrazin-2-ylcarbonylaminomethyl) benzimidazolium compounds as epithelial sodium channel inhibitors” (Boehringer Ingelheim International GmbH, priority 2015, dated 2018)
# What was measured:
# [1] = biological target: T1, ENaC (Epithelial Sodium Channel), Mouse kidney M-1 cells (Mus musculus, UniProt Q61180+Q9WU38+Q9WU39); experiment: Ussing Chamber assay: inhibition of amiloride sensitive short circuit current in M-1 cells; type: cell-based; conditions: apical application, 37° C.
# T1 construct: Mouse kidney M-1 cells were cultivated in DMEM containing 5% FCS and 5 μM dexamethasone; endogenous in cells; host or cells: Mouse kidney M-1 cells (polarised on transwell filters, dexamethasone-treated)
# T1 sequence (Q61180 1-699): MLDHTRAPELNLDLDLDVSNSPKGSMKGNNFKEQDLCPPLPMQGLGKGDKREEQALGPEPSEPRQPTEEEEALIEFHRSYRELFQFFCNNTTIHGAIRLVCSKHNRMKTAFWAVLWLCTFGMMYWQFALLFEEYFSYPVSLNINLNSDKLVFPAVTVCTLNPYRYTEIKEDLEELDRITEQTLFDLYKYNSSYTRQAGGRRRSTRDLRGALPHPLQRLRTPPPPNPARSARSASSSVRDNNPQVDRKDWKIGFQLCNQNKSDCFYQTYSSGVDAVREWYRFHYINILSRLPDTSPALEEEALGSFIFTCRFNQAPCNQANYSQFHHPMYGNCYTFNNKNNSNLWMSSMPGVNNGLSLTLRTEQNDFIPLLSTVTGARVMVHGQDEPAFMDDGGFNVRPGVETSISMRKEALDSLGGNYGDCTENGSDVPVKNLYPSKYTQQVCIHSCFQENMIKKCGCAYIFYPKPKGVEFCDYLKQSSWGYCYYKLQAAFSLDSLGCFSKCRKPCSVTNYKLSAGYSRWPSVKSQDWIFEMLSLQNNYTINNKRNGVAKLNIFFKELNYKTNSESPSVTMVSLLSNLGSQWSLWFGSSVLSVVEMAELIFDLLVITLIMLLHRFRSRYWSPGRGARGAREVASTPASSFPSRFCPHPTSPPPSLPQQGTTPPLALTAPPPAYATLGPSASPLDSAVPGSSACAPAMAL
# T1 sequence (Q9WU38 1-638): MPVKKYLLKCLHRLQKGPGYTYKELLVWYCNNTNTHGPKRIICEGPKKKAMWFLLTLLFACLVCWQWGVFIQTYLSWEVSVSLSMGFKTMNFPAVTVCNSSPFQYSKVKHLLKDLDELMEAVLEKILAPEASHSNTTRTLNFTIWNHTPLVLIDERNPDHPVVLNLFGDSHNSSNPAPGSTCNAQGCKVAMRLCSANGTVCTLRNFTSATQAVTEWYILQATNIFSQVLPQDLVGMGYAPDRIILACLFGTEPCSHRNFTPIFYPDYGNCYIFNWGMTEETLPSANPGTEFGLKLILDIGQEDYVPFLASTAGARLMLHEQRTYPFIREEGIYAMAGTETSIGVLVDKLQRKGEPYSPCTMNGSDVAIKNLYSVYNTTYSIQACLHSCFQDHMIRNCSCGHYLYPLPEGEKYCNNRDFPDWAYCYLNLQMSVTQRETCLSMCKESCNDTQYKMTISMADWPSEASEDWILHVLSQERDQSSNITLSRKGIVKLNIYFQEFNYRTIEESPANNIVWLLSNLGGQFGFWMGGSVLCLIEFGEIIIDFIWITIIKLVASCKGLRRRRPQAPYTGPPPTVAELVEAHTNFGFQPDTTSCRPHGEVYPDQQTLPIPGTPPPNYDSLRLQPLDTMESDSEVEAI
# T1 sequence (Q9WU39 1-655): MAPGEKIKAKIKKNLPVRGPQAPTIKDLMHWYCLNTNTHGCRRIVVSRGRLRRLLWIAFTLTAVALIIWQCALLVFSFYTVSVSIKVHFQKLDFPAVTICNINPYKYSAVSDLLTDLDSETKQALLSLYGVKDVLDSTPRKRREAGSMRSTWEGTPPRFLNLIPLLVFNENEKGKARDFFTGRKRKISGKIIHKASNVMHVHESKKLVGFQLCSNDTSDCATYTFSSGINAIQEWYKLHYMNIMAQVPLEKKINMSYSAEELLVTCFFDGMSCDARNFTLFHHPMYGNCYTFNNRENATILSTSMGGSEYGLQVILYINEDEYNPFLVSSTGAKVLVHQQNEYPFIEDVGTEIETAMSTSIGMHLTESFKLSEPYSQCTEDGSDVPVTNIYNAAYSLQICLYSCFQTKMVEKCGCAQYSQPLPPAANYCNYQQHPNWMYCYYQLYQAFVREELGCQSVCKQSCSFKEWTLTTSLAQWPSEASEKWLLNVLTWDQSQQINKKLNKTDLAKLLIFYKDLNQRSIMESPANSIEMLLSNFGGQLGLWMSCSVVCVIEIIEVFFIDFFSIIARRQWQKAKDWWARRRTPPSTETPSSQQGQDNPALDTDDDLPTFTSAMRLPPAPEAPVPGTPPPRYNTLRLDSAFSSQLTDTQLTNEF
# Procedure: Ussing Chamber: Mouse kidney M-1 cells were cultivated in DMEM containing 5% FCS and 5 μM dexamethasone for 10 to 12 days on polyester transwell filters. Filters were inserted into a teflon-coated well-plate which fit into the ussing chamber system. Prior to measurement the medium of M-1 cells was replaced with Caco-2 transport buffer (Invitrogen, Germany). During measurements, the Ussing chamber temperature was kept at 37° C. Short circuit currents (I_sc) were measured in the voltage-clamp mode with the software package Lab View for data acquisition and analysis. The transepithelial electrical resistance (TEER) was determined by the application of voltage steps of ±5 mV every 5 sec. Compounds were administered at a final concentration of 3 μM or at increasing concentrations (1-3-10 μM) to the apical solution. At the end of each experiment the amiloride sensitive I_SC was measured by adding 3 μM amiloride to the apical compartment. Results are expressed as inhibition in percent of the amiloride effect or as IC50.
# [2] = Permeability in CALU-3 cells; type: in vitro ADME; conditions: human, CALU-3 monolayers, pH 7.4, 37° C., 10 μM compound; for Papp A→B at 90 min, 10 μM: apical-to-basal; for Papp B→A at 90 min, 10 μM: basal-to-apical
# Procedure: Permeability in CALU-3 Cells:
# Permeability measurements across polarized, confluent CALU-3 cell monolayers grown on permeable filter supports are used to provide information on the potential of a compound to pass the lung epithelium.
# CALU-3 cells (1-2×10^5 cells/l cm^2 area) are seeded on filter inserts (Costar transwell polycarbonate filters, 0.4 μm pore size) and cultured (for 10-12 days DMEM) until tight monolayers are formed. Compounds of interest are dissolved in appropriate solvent (DMSO, 10 mM stock solution). […] The transport solution (TL) is applied to the apical or basolateral donor side for measuring A-B or B-A permeability (3 filter replicates), respectively. The receiver side contains the same buffer as the donor side. After 30 min of accommodation, samples are collected at the start t0=0 min and at the end of the experiment tn=90 min from the donor and at 0, 30, 60, and 90 min also from the receiver chamber. Volume removed is […] by HTP-4 buffer. The compound concentration in the samples is measured by HPLC-MS/MS or scintillation counting. The permeability coefficient (Papp) and efflux ratio are calculated according to: Papp [cm/s]=(concentration receiver [nM]*volume receiver [mL]/time interval [sec])*(1/filter area)*(1/donor concentration [nM]).
SMILES,IC50 [1] [nM],"Papp A→B at 90 min, 10 μM [2] [×10⁻⁶ cm/s]","Papp B→A at 90 min, 10 μM [2] [×10⁻⁶ cm/s]"
CCn1c(CNC(=O)c2nc(Cl)c(N)nc2N)[n+](CC(=O)N2CCN(C)CC2)c2ccc(OC)cc21 [Example 3.05],12,–,–
CCn1c(CNC(=O)c2nc(Cl)c(N)nc2N)[n+](CC(=O)N2CCOCC2)c2ccc(OC)cc21.[Br-] [Example 3.02],5,0.06,0.2
CCn1c(CNC(=O)c2nc(Cl)c(N)nc2N)[n+](CC(=O)N(C)CCCN(C)C)c2ccc(OC)cc21 [Example 3.07],39,–,–
CC[n+]1c(CNC(=O)c2nc(Cl)c(N)nc2N)n(CCOCCOCCN)c2cc(OC)ccc21 [Example 6.02],4,–,–
CCn1c(CNC(=O)c2nc(Cl)c(N)nc2N)[n+](CC(N)=O)c2ccc(OC)cc21 [Example 3.10],1,–,–
CC[n+]1c(CNC(=O)c2nc(Cl)c(N)nc2N)n(CCCc2ccc(OCP(C)(C)=O)cc2)c2cc(OC)ccc21.O=C([O-])C(F)(F)F [Example 1.03],8,0.1,0.07
CCn1c(CNC(=O)c2nc(Cl)c(N)nc2N)[n+](CC(=O)N2CCNCC2)c2ccc(OC)cc21.Cl.[Cl-] [Example 6.01],47,0.3,0.2
COc1ccc2c(c1)n(CCF)c(CNC(=O)c1nc(Cl)c(N)nc1N)[n+]2CCOCCOCCO [Example 1.04],2,–,–
COc1ccc2c(c1)[n+](CCF)c(CNC(=O)c1nc(Br)c(N)nc1N)n2CCOCCOCCO [Example 2.01],2,–,–
CCn1c(CNC(=O)c2nc(Cl)c(N)nc2N)[n+](CCNS(C)(=O)=O)c2ccc(OC)cc21 [Example 9.01],0.4,–,–
CC[n+]1c(CNC(=O)c2nc(Cl)c(N)nc2N)n(C2CCN(C(=O)NCCOC)CC2)c2ccccc21.O=C[O-] [Example 7.01],1,0.07,0.2
CCn1c(CNC(=O)c2nc(Cl)c(N)nc2N)[n+](CC(=O)N2CCN(C(=O)OC(C)(C)C)CC2)c2ccc(OC)cc21.[Br-] [Example 3.08],4,0.1,0.08
CCNC(=O)C[n+]1c(CNC(=O)c2nc(Cl)c(N)nc2N)n(CC)c2cc(OC)ccc21 [Example 3.03],4,–,–
CCn1c(CNC(=O)c2nc(Cl)c(N)nc2N)[n+](CC(=O)NCCCN(C)C(=O)OC(C)(C)C)c2ccc(OC)cc21 [Example 3.17],4,–,–
CCn1c(CNC(=O)c2nc(Cl)c(N)nc2N)[n+](CCCC(=O)NCCN(C)C)c2ccc(OC)cc21 [Example 4.01],1,–,–
CCn1c(CNC(=O)c2nc(Cl)c(N)nc2N)[n+](CC(=O)NC2CCN(C(=O)OC(C)(C)C)CC2)c2ccc(OC)cc21.[Br-] [Example 3.12],12,0.09,0.3

SMILES,IC50 [1] [nM],"Papp A→B at 90 min, 10 μM [2] [×10⁻⁶ cm/s]","Papp B→A at 90 min, 10 μM [2] [×10⁻⁶ cm/s]"
CC[n+]1c(CNC(=O)c2nc(Cl)c(N)nc2N)n(CCOCCOCCNC(=O)OC(C)(C)C)c2cc(OC)ccc21 [Example 1.01],3,–,–
CCn1c(CNC(=O)c2nc(Cl)c(N)nc2N)[n+](CC(=O)NC)c2ccc(OC)cc21 [Example 3.14],2,–,–
CC[n+]1c(CNC(=O)c2nc(Cl)c(N)nc2N)n(CCOCCOCCNC(=O)c2nc(Cl)c(N)nc2N)c2cc(OC)ccc21 [Example 5.01],4,–,–
CCn1c(CNC(=O)c2nc(Cl)c(N)nc2N)[n+](CC(=O)NCCOC)c2ccc(OC)cc21 [Example 3.04],3,–,–
CCn1c(CNC(=O)c2nc(Cl)c(N)nc2N)[n+](CC(=O)N2CCC(N(C)C)CC2)c2ccc(OC)cc21 [Example 3.11],110,–,–
C=CC[n+]1c(CNC(=O)c2nc(Cl)c(N)nc2N)n(CCOCCOCCO)c2ccc(OC)cc21 [Example 1.05],0.4,–,–
CCn1c(CNC(=O)c2nc(Cl)c(N)nc2N)[n+](CC(=O)NCCN(C)C)c2ccc(OC)cc21.O=C(O)C(F)(F)F.O=C([O-])C(F)(F)F [Example 3.06],8,0.1,0.03
CCn1c(CNC(=O)c2nc(Cl)c(N)nc2N)[n+](CC(=O)N(CCO)CCO)c2ccc(OC)cc21 [Example 3.15],20,–,–
CCn1c(CNC(=O)c2nc(Cl)c(N)nc2N)[n+](CC(=O)N(CCOC)CCOC)c2ccc(OC)cc21 [Example 3.01],10,–,–
CC[n+]1c(CNC(=O)c2nc(Cl)c(N)nc2N)n(CC2(CO)COC2)c2cc(OC)ccc21 [Example 1.02],2,–,–
CCn1c(CNC(=O)c2nc(Cl)c(N)nc2N)[n+](CC(=O)N(C)CCN(C)C)c2ccc(OC)cc21 [Example 3.09],33,–,–
CCn1c(CNC(=O)c2nc(Cl)c(N)nc2N)[n+](CC(=O)N2CCCN(C(=O)OC(C)(C)C)CC2)c2ccc(OC)cc21 [Example 3.21],28,–,–
CCn1c(CNC(=O)c2nc(Cl)c(N)nc2N)[n+](CC(=O)N(C)CCOC)c2ccc(OC)cc21.[Br-] [Example 3.13],7,0.07,0.2
CCn1c(CNC(=O)c2nc(Cl)c(N)nc2N)[n+](CC(=O)N2CCCNCC2)c2ccc(OC)cc21 [Example 6.04],63,–,–
CC[n+]1c(CNC(=O)c2nc(Cl)c(N)nc2N)n(CC2(CCc3ccccc3)CCN(C(=O)NC3CCN(C)CC3)CC2)c2ccccc21 [Example 10.01],2,–,–
CCn1c(CNC(=O)c2nc(Cl)c(N)nc2N)[n+](CC(=O)NC2CCNCC2)c2ccc(OC)cc21 [Example 6.03],17,–,–
